In paper PMC12298351, “Novel 3,19-(N-Phenyl-3-(4-fluorophenyl)-pyrazole) Acetal of Andrographolide Promotes Cell Cycle Arrest and Apoptosis in MDA-MB-231 Breast Cancer Cells” (Pharmaceuticals, 2025):

What was measured:
KM12 = settings: KM12, Colon
IGROV1 = settings: IGROV1, Ovarian
MCF7 = settings: MCF7, Breast
SK-OV-3 = settings: SK-OV-3, Ovarian
UO-31 = settings: UO-31, Renal
MDA-MB-468 = settings: MDA-MB-468, Breast
NCI/ADR-RES = settings: Ovarian
U251 = settings: U251, CNS
SK-MEL-28 = settings: SK-MEL-28, Melanoma
TK-10 = format: cell-based; settings: TK-10, Renal
M14 = format: cell-based; settings: M14, Melanoma
RPMI-8226 = settings: RPMI-8226, Leukemia
SW-620 = settings: SW-620, Colon
OVCAR-8 = settings: OVCAR-8, Ovarian
A498 = settings: A498, Renal
UACC-62 = settings: UACC-62, Melanoma
RXF 393 = settings: RXF 393, Renal
UACC-257 = settings: UACC-257, Melanoma
CAKI-1 = settings: CAKI-1, Renal
DU-145 = settings: DU-145, Prostate
OVCAR-3 = settings: OVCAR-3, Ovarian
K-562 = settings: K-562, Leukemia
SF-268 = settings: SF-268, CNS
[1] = read-out: 50% lethal concentration (LC50)
[2] = read-out: 50% lethal concentration (LC50), Non-Small Cell Lung
[3] = read-out: 50% lethal concentration (LC50), Renal
[4] = read-out: 50% lethal concentration (LC50), Leukemia

`C=C1CCC2C3(C)COC(c4cn(-c5ccccc5)nc4-c4ccccc4)OC3CCC2(C)C1CC=C1C(=O)OCC1O` (centres unmarked) [1a] gave a GI50 (KM12) of 2.06 µM, a Total growth inhibition (TGI) (KM12) of 4.31 µM and a GI50 (IGROV1) of 1.77 µM. The Total growth inhibition (TGI) (IGROV1) was 3.44 µM, the CC50 (IGROV1; [1]) was 6.66 µM and the GI50 (MCF7) was 2 µM. The Total growth inhibition (TGI) (MCF7) was 9.09 µM, the CC50 (MCF7; [1]) was > 100 µM and the GI50 (SK-OV-3) was 1.77 µM. The Total growth inhibition (TGI) (SK-OV-3) was 18.7 µM, the CC50 (SK-OV-3; [1]) was 91.1 µM and the GI50 (UO-31) was 1.35 µM. The Total growth inhibition (TGI) (UO-31) was 2.69 µM, the CC50 (UO-31; [1]) was 5.36 µM and the Total growth inhibition (TGI) (EKVX; Non-Small Cell Lung) was 4.66 µM. The GI50 (EKVX; Non-Small-Cell Lung) was 2.07 µM, the CC50 (EKVX; [2]) was > 100 µM and the GI50 (MDA-MB-468) was 1.69 µM. For the same compound, the Total growth inhibition (TGI) (MDA-MB-468) was 3.34 µM, the CC50 (MDA-MB-468; [1]) was 6.58 µM and the GI50 (NCI/ADR-RES) was 4.75 µM. For the same compound, the Total growth inhibition (TGI) (NCI/ADR-RES) was 5.31 µM, the GI50 (U251) was 1.84 µM and the Total growth inhibition (TGI) (U251) was 3.71 µM. For the same compound, the CC50 (U251; [1]) was 7.48 µM, the GI50 (SK-MEL-28) was 1.77 µM and the Total growth inhibition (TGI) (SK-MEL-28) was 3.38 µM. For the same compound, the CC50 (SK-MEL-28; [1]) was 6.45 µM, the GI50 (TK-10) was 1.78 µM and the Total growth inhibition (TGI) (TK-10) was 3.39 µM. The CC50 (TK-10; [1]) was 6.46 µM, the GI50 (SN12C; Renal) was 1.87 µM and the Total growth inhibition (TGI) (SN12C; Renal) was 3.96 µM. It also gave a CC50 (SN12C; [3]) of 8.37 µM, a GI50 (M14) of 1.81 µM and an LC50 (50% lethal concentration) (M14) of 7.23 µM. The Total growth inhibition (TGI) (M14) was 3.62 µM, the GI50 (RPMI-8226) was 2.02 µM and the Total growth inhibition (TGI) (RPMI-8226) was 8.62 µM. For the same compound, the CC50 (RPMI-8226; [1]) was > 100 µM, the GI50 (SW-620) was 1.73 µM and the Total growth inhibition (TGI) (SW-620) was 3.68 µM. For the same compound, the CC50 (SW-620; [1]) was 7.82 µM, the Total growth inhibition (TGI) (HOP-62; HOP-62, Non-Small Cell Lung) was 3.84 µM and the GI50 (HOP-62; HOP-62, Non-Small-Cell Lung) was 1.87 µM. The CC50 (HOP-62; read-out: 50% lethal concentration (LC50), HOP-62, Non-Small Cell Lung) was 7.89 µM, the GI50 (CCRF-CEM; Leukemia) was 0.59 µM and the Total growth inhibition (TGI) (CCRF-CEM; Leukemia) was 3.37 µM. For the same compound, the CC50 (CCRF-CEM; [4]) was > 100 µM, the GI50 (OVCAR-8) was 1.81 µM and the Total growth inhibition (TGI) (OVCAR-8) was 4.02 µM. For the same compound, the CC50 (OVCAR-8; [1]) was > 100 µM, the GI50 (ACHN; Renal) was 1.64 µM and the Total growth inhibition (TGI) (ACHN; Renal) was 3.05 µM. For the same compound, the CC50 (ACHN; [3]) was 5.67 µM, the GI50 (SR; Leukemia) was 3.79 µM and the Total growth inhibition (TGI) (SR; Leukemia) was > 100 µM. The CC50 (SR; [4]) was > 100 µM, the GI50 (A498) was 2.34 µM and the Total growth inhibition (TGI) (A498) was 6.47 µM. For the same compound, the CC50 (A498; [1]) was 27.7 µM, the Total growth inhibition (TGI) (A549/ATCC; Non-Small Cell Lung) was 7.11 µM and the GI50 (A549/ATCC; Non-Small-Cell Lung) was 2.49 µM. The CC50 (A549/ATCC; [2]) was > 100 µM, the GI50 (UACC-62) was 1.65 µM and the Total growth inhibition (TGI) (UACC-62) was 3.2 µM. For the same compound, the CC50 (UACC-62; [1]) was 6.22 µM, the GI50 (RXF 393) was 1.4 µM and the Total growth inhibition (TGI) (RXF 393) was 2.84 µM. The CC50 (RXF 393; [1]) was 5.76 µM, the GI50 (UACC-257) was 1.9 µM and the Total growth inhibition (TGI) (UACC-257) was 3.8 µM. For the same compound, the CC50 (UACC-257; [1]) was 7.62 µM, the Total growth inhibition (TGI) (NCI-H460; NCI-H460, Non-Small Cell Lung) was 3.35 µM and the GI50 (NCI-H460; NCI-H460, Non-Small-Cell Lung) was 1.66 µM. For the same compound, the CC50 (NCI-H460; read-out: 50% lethal concentration (LC50), NCI-H460, Non-Small Cell Lung) was 6.74 µM, the GI50 (CAKI-1) was 1.86 µM and the Total growth inhibition (TGI) (CAKI-1) was 4.81 µM. The GI50 (DU-145) was 2.05 µM, the Total growth inhibition (TGI) (DU-145) was 4.16 µM and the GI50 (LOX IMVI; Melanoma) was 1.54 µM. It also gave a Total growth inhibition (TGI) (LOX IMVI; Melanoma) of 3 µM, a CC50 (LOX IMVI; read-out: 50% lethal concentration (LC50), Melanoma) of 5.85 µM and a GI50 (OVCAR-3) of 1.82 µM. The Total growth inhibition (TGI) (OVCAR-3) was 3.35 µM, the CC50 (OVCAR-3; [1]) was 6.16 µM and the GI50 (K-562) was 2.97 µM. The Total growth inhibition (TGI) (K-562) was > 100 µM, the CC50 (K-562; [1]) was > 100 µM and the GI50 (SF-268) was 3.2 µM. For the same compound, the Total growth inhibition (TGI) (SF-268) was 20.5 µM and the CC50 (SF-268; [1]) was > 100 µM.
